The record followed here is patent publication US12404295B2, “(Hetero)aryl-methyl-thio-beta-D-galactopyranoside derivatives” (Idorsia Pharmaceuticals Ltd, priority 2019, dated 2025).

By IC50 is commonly meant the concentration that gives 50% inhibition.

Where two headings read alike, the source gives them in different places.

Assay [1] addresses human Gal-1 (hGal-1) (Homo sapiens (Human), UniProt P09382). Briefly: competitive binding assay: biotinylated hGal-1 binding to microplate-adsorbed asialofetuin (ASF). As to conditions: Table 15; read-out: IC50 (Galectin-1 inhibition). The essentials: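 Biotinylated human Gal-1 (300-1000 ng/mL) competes with serially diluted compound for binding to ASF-coated plates, 3 h at 4° C. Bound protein detected with streptavidin-peroxidase and ABTS substrate (spectrophotometric). IC50 given as mean of several measurements.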

In assay [2] the target is human Gal-3 (hGal-3) (Homo sapiens (Human), UniProt P17931). Put plainly: competitive binding assay: biotinylated hGal-3 binding to microplate-adsorbed asialofetuin (ASF). A digest of the protocol: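 Compounds serially diluted in DMSO compete with asialofetuin for biotinylated human Gal-3; plates are incubated 3 h at 4 °C, washed, then treated 1 h at 4 °C with streptavidin-peroxidase (80 ng/mL) and developed with ABTS. IC50 values are means of several measurements.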

Where [3] appears, read: Gal-3 inhibition, binding of biotinylated hGal-3 to ASF, mean values, read-out: IC50.
Setting [4] is: Table 5, read-out: IC50 (Gal-3 inhibition).
[5] abbreviates: Table 9, 2-OMe-Gal inhibitors, read-out: IC50 (Gal-3 inhibition).

Chain of human Gal-3 (hGal-3) (P17931 whole entry): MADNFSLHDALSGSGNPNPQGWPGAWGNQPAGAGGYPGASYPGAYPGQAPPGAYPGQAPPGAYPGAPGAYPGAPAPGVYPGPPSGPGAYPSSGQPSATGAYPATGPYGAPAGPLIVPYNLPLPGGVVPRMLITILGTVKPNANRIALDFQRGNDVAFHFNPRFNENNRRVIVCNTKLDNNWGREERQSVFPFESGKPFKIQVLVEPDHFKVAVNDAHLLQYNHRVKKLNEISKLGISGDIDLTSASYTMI
Chain of human Gal-1 (hGal-1) (P09382 whole entry): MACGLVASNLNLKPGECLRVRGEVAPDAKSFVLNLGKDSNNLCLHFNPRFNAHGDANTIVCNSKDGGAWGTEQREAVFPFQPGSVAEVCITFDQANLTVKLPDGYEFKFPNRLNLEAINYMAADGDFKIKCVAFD

As for `CC(C)(O)C(S[C@@H]1O[C@H](CO)[C@H](O)[C@H](n2cc(-c3cc(F)c(F)c(F)c3)nn2)[C@H]1O)c1ccccc1C(F)(F)F` (stereo partly drawn) [Example 2.31.112., (2S,3R,4S,5R,6R)-2-((2-Hydroxy-2-methyl-1-(2-(trifluoromethyl)phenyl)propyl)thio)-6-(hydroxymethyl)-4-(4-(3,4,5-trifluorophenyl)-1H-1,2,3-triazol-1-yl)tetrahydro-2H-pyran-3,5-diol], the 50% inhibitory concentration (IC50) came out at 5230 nM in assay [1] and 250 nM in assay [2] (setting [3]).

As to `Cc1ccccc1[C@@H](S[C@@H]1O[C@H](CO)[C@H](O)[C@H](n2cc(-c3cc(F)c(F)c(F)c3)nn2)[C@H]1O)C1(O)CCCC1` [Example 2.38.102R., (2S,3R,4S,5R,6R)-2-(((R)-(1-Hydroxycyclopentyl)(o-tolyl)methyl)thio)-6-(hydroxymethyl)-4-(4-(3,4,5-trifluorophenyl)-1H-1,2,3-triazol-1-yl)tetrahydro-2H-pyran-3,5-diol], the half-inhibitory concentration (IC50) came out at 1800 nM in assay [1] and 110 nM in assay [2] (setting [4]).

`CO[C@@H]1[C@@H](n2cc(-c3cc(F)c(F)c(F)c3)nn2)[C@@H](O)[C@@H](CO)O[C@H]1S[C@H](c1ncccc1C)C1(O)CCOCC1` [Example 2.41.126R.I., (2R,3R,4S,5R,6S)-2-(Hydroxymethyl)-6-(((R)-(4-hydroxytetrahydro-2H-pyran-4-yl)(3-methylpyridin-2-yl)methyl)thio)-5-methoxy-4-(4-(3,4,5-trifluorophenyl)-1H-1,2,3-triazol-1-yl)tetrahydro-2H-pyran-3-ol]: the figures for the IC50 in assay [1] and in assay [2] (setting [5]) were 800 nM and 60 nM, respectively.

With `CC(C)(O)[C@H](S[C@@H]1O[C@H](CO)[C@H](O)[C@H](n2cc(-c3cc(F)c(F)c(F)c3)nn2)[C@H]1O)c1cccc2ccccc12` [Example 2.31.115R., (2S,3R,4S,5R,6R)-2-(((R)-2-Hydroxy-2-methyl-1-(naphthalen-1-yl)propyl)thio)-6-(hydroxymethyl)-4-(4-(3,4,5-trifluorophenyl)-1H-1,2,3-triazol-1-yl)tetrahydro-2H-pyran-3,5-diol], the figures for the IC50 in assay [1] and in assay [2] (setting [3]) were 580 nM and 170 nM, respectively.

Turning to `Cc1nccnc1[C@H](S[C@@H]1O[C@H](CO)[C@H](O)[C@H](n2cc(-c3cc(F)c(F)c(F)c3)nn2)[C@H]1O)C1(O)CCC(F)(F)CC1` [Example 2.44.129S., (2S,3R,4S,5R,6R)-2-(((S)-(4,4-Difluoro-1-hydroxycyclohexyl)(3-methylpyrazin-2-yl)methyl)thio)-6-(hydroxymethyl)-4-(4-(3,4,5-trifluorophenyl)-1H-1,2,3-triazol-1-yl)tetrahydro-2H-pyran-3,5-diol], the IC50 is 6300 nM in assay [1] and 1480 nM in assay [2] (setting [3]).

Turning to “(2S,3R,4S,5R,6R)-2-(((2,3-Dichlorophenyl)(4,4-difluoro-1-hydroxycyclohexyl)methyl)thio)-6-(hydroxymethyl)-4-(4-(3,4,5-trifluorophenyl)-1H-1,2,3-triazol-1-yl)tetrahydro-2H-pyran-3,5-diol [Example 2.44.113.]”, the figures for the concentration for half-maximal inhibition (IC50) in assay [1] and in assay [2] (setting [4]) were 2350 nM and 360 nM, respectively.

Consider `CO[C@@H]1[C@@H](n2cc(-c3cc(F)c(F)c(F)c3)nn2)[C@@H](O)[C@@H](CO)O[C@H]1S[C@H](c1ncccc1C(F)(F)F)C1(O)CCC(F)(F)CC1` [Example 2.44.125R.I., (2R,3R,4S,5R,6S)-6-(((R)-(4,4-Difluoro-1-hydroxycyclohexyl)(3-(trifluoromethyl)pyridin-2-yl)methyl)thio)-2-(hydroxymethyl)-5-methoxy-4-(4-(3,4,5-trifluorophenyl)-1H-1,2,3-triazol-1-yl)tetrahydro-2H-pyran-3-ol], for which the results for the 50% inhibitory concentration (IC50) in assay [1] and in assay [2] (setting [5]) were 260 nM and 60 nM, respectively.

Turning to `OC[C@H]1O[C@@H](SC(c2ccccc2C(F)(F)F)C2(O)CCOCC2)[C@H](O)[C@@H](n2cc(-c3cc(F)c(F)c(F)c3)nn2)[C@H]1O` (stereo partly drawn) [Example 2.41.112., (2R,3R,4S,5R,6S)-2-(Hydroxymethyl)-6-(((4-hydroxytetrahydro-2H-pyran-4-yl)(2-(trifluoromethyl)phenyl)methyl)thio)-4-(4-(3,4,5-trifluorophenyl)-1H-1,2,3-triazol-1-yl)tetrahydro-2H-pyran-3,5-diol], the 50% inhibitory concentration (IC50) was 900 nM in assay [1] and 110 nM in assay [2] (setting [4]).

With `Cc1nc(C)c(C(S[C@@H]2O[C@H](CO)[C@H](O)[C@H](n3cc(-c4cc(F)c(F)c(F)c4)nn3)[C@H]2O)C(C)(C)O)nc1C` (stereo partly drawn) [Example 2.31.119., (2S,3R,4S,5R,6R)-2-((2-Hydroxy-2-methyl-1-(3,5,6-trimethylpyrazin-2-yl)propyl)thio)-6-(hydroxymethyl)-4-(4-(3,4,5-trifluorophenyl)-1H-1,2,3-triazol-1-yl)tetrahydro-2H-pyran-3,5-diol], the IC50 in assay [1] is 1750 nM; in assay [2] (setting [3]) it was 230 nM.

Turning to `CO[C@@H]1[C@@H](n2cc(-c3cc(F)c(F)c(F)c3)nn2)[C@@H](O)[C@@H](CO)O[C@H]1S[C@H](c1nccc(Cl)c1C)C1(O)CCC(F)(F)CC1` [Example 2.44.141R.I., (2R,3R,4S,5R,6S)-6-(((R)-(4-Chloro-3-methylpyridin-2-yl)(4,4-difluoro-1-hydroxycyclohexyl)methyl)thio)-2-(hydroxymethyl)-5-methoxy-4-(4-(3,4,5-trifluorophenyl)-1H-1,2,3-triazol-1-yl)tetrahydro-2H-pyran-3-ol], the IC50 came out at 350 nM in assay [1] and 70 nM in assay [2] (Table 11, read-out: IC50 (Gal-3 inhibition)).

Regarding `OC[C@H]1O[C@@H](SC(c2ncccc2C(F)(F)F)C2(O)CCOCC2)[C@H](O)[C@@H](n2cc(-c3cc(F)c(F)c(F)c3)nn2)[C@H]1O` (stereo partly drawn) [Example 2.41.125., (2R,3R,4S,5R,6S)-2-(Hydroxymethyl)-6-(((4-hydroxytetrahydro-2H-pyran-4-yl)(3-(trifluoromethyl)pyridin-2-yl)methyl)thio)-4-(4-(3,4,5-trifluorophenyl)-1H-1,2,3-triazol-1-yl)tetrahydro-2H-pyran-3,5-diol], the IC50 in assay [1] is 5700 nM; in assay [2] (setting [4]), 250 nM.

Consider `Cc1ccccc1C(S[C@@H]1O[C@H](CO)[C@H](O)[C@H](n2cc(-c3cc(F)c(F)c(F)c3)nn2)[C@H]1O)C1(O)CC(C)(C)C1` (stereo partly drawn) [Example 2.35.102., (2S,3R,4S,5R,6R)-2-(((1-Hydroxy-3,3-dimethylcyclobutyl)(o-tolyl)methyl)thio)-6-(hydroxymethyl)-4-(4-(3,4,5-trifluorophenyl)-1H-1,2,3-triazol-1-yl)tetrahydro-2H-pyran-3,5-diol], for which the 50% inhibitory concentration (IC50) turned out to be 6220 nM in assay [1] and 350 nM in assay [2] (setting [4]).

In the case of `OC[C@H]1O[C@@H](S[C@@H](c2ncccc2C(F)(F)F)C2(O)CCCCC2)[C@H](O)[C@@H](n2cc(-c3cc(F)c(F)c(F)c3)nn2)[C@H]1O` [Example 2.39.125S., (2S,3R,4S,5R,6R)-2-(((S)-(1-Hydroxycyclohexyl)(3-(trifluoromethyl)pyridin-2-yl)methyl)thio)-6-(hydroxymethyl)-4-(4-(3,4,5-trifluorophenyl)-1H-1,2,3-triazol-1-yl)tetrahydro-2H-pyran-3,5-diol], the 50% inhibitory concentration (IC50) stood at 21800 nM in assay [1] and 3000 nM in assay [2] (setting [4]).

Regarding `Cc1c(F)cc(-c2cn([C@H]3[C@@H](O)[C@@H](CO)O[C@@H](S[C@H](c4ccccc4C(F)(F)F)C(C)(C)O)[C@@H]3O)nn2)cc1F` [Example 3.31.112R., (2S,3R,4S,5R,6R)-4-(4-(3,5-Difluoro-4-methylphenyl)-1H-1,2,3-triazol-1-yl)-2-(((R)-2-hydroxy-2-methyl-1-(2-(trifluoromethyl)phenyl)propyl)thio)-6-(hydroxymethyl)tetrahydro-2H-pyran-3,5-diol], the concentration for half-maximal inhibition (IC50) in assay [1] worked out at 2840 nM; in assay [2] (setting [3]) it was 150 nM.

With `CS(=O)(=O)N1CCC(O)([C@H](S[C@@H]2O[C@H](CO)[C@H](O)[C@H](n3cc(-c4cc(F)c(F)c(F)c4)nn3)[C@H]2O)c2ccccc2C(F)(F)F)CC1` [Example 2.47.112R., (2S,3R,4S,5R,6R)-2-(((R)-(4-Hydroxy-1-(methylsulfonyl)piperidin-4-yl)(2-(trifluoromethyl)phenyl)methyl)thio)-6-(hydroxymethyl)-4-(4-(3,4,5-trifluorophenyl)-1H-1,2,3-triazol-1-yl)tetrahydro-2H-pyran-3,5-diol], the IC50 in assay [1] is 120 nM; in assay [2] (setting [3]), 30 nM.

For the compound `Cc1conc1[C@@H](S[C@@H]1O[C@H](CO)[C@H](O)[C@H](n2cc(-c3cc(F)c(F)c(F)c3)nn2)[C@H]1O)C1(O)CCC(F)(F)CC1` [Example 2.44.120R., (2S,3R,4S,5R,6R)-2-(((R)-(4,4-Difluoro-1-hydroxycyclohexyl)(4-methylisoxazol-3-yl)methyl)thio)-6-(hydroxymethyl)-4-(4-(3,4,5-trifluorophenyl)-1H-1,2,3-triazol-1-yl)tetrahydro-2H-pyran-3,5-diol], the figures for the 50% inhibitory concentration (IC50) in assay [1] and in assay [2] (setting [4]) were 380 nM and 110 nM, respectively.

Consider `Cc1ccccc1C(S[C@@H]1O[C@H](CO)[C@H](O)[C@H](n2cc(-c3cc(F)c(F)c(F)c3)nn2)[C@H]1O)C1(O)CCCC1` (stereo partly drawn) [Example 2.38.102., (2S,3R,4S,5R,6R)-2-(((1-Hydroxycyclopentyl)(o-tolyl)methyl)thio)-6-(hydroxymethyl)-4-(4-(3,4,5-trifluorophenyl)-1H-1,2,3-triazol-1-yl)tetrahydro-2H-pyran-3,5-diol], for which the 50% inhibitory concentration (IC50) in assay [1] was found to be 2900 nM; in assay [2] (setting [4]), 180 nM.

Regarding `Cc1cccnc1[C@@H](S[C@@H]1O[C@H](CO)[C@H](O)[C@H](n2cc(-c3cc(F)c(F)c(F)c3)nn2)[C@H]1O)C1(O)CCC(F)(F)CC1` [Example 2.44.126R., (2S,3R,4S,5R,6R)-2-(((R)-(4,4-Difluoro-1-hydroxycyclohexyl)(3-methylpyridin-2-yl)methyl)thio)-6-(hydroxymethyl)-4-(4-(3,4,5-trifluorophenyl)-1H-1,2,3-triazol-1-yl)tetrahydro-2H-pyran-3,5-diol], the IC50 in assay [1] amounted to 300 nM; in assay [2] (setting [3]), 40 nM.
